One assay concerns the target cSRC(h) (Homo sapiens (Human), UniProt P12931). The assay is described as follows: KinaseProfiler kinase panel. The class given is biochemical.
Another assay has as its target CaMKIV(h) (Homo sapiens (Human), UniProt Q16566). Kind of assay: KinaseProfiler kinase panel. The class given is biochemical.
The target of another assay is ARK5(h) (Homo sapiens (Human), UniProt O60285). Kind of assay: KinaseProfiler kinase panel. The class given is biochemical.
For another assay, the target named is Flt3(h) (Homo sapiens (Human), UniProt P36888). The assay is described as follows: KinaseProfiler kinase panel. The class given is biochemical.
The target in another assay is c-RAF(h) (Homo sapiens (Human), UniProt P04049, Y340D/Y341D). Kind of assay: KinaseProfiler kinase panel. The class given is biochemical.
Another assay concerns the target IKKα(h) (Homo sapiens (Human), UniProt O15111). Kind of assay: KinaseProfiler kinase panel. It counts as biochemical.
Another assay addresses CDK5/p25(h) (Homo sapiens (Human), UniProt Q00535). The assay is described as follows: KinaseProfiler kinase panel. The class given is biochemical.
The next assay has as its target MEK1(h) (Homo sapiens (Human), UniProt Q02750). Kind of assay: KinaseProfiler kinase panel. The class given is biochemical.
The next assay concerns the target Snk(h) (Homo sapiens (Human), UniProt Q9NYY3). The assay is described as follows: KinaseProfiler kinase panel. The class given is biochemical.
The next assay deals with Met(M1268T)(h) (Homo sapiens (Human), UniProt P08581, M1268T). The assay is described as follows: KinaseProfiler kinase panel. The class given is biochemical.
The target of the next assay is Txk(h) (Homo sapiens (Human), UniProt P42681). Kind of assay: KinaseProfiler kinase panel. The class given is biochemical.
A further assay has as its target DDR2(h) (Homo sapiens (Human), UniProt Q16832). Kind of assay: KinaseProfiler kinase panel. The class given is biochemical.
The target of another assay is LKB1(h) (Homo sapiens (Human), UniProt Q15831). The assay is described as follows: KinaseProfiler kinase panel. It counts as biochemical.
The next assay has as its target Haspin(h) (Homo sapiens (Human), UniProt Q8TF76). The assay is described as follows: KinaseProfiler kinase panel. The class given is biochemical.
The next assay concerns the target HIPK2(h) (Homo sapiens (Human), UniProt Q9H2X6). Kind of assay: KinaseProfiler kinase panel. The class given is biochemical.
A further assay addresses AMPKα2(h) (Homo sapiens (Human), UniProt P54646). Kind of assay: KinaseProfiler kinase panel. The class given is biochemical.
Another assay addresses eEF-2K(h) (Homo sapiens (Human), UniProt O00418). The assay is described as follows: KinaseProfiler kinase panel. The class given is biochemical.
In the next assay the target is IKKβ(h) (Homo sapiens (Human), UniProt O14920). Kind of assay: KinaseProfiler kinase panel. It counts as biochemical.
A further assay has as its target PKCθ(h) (Homo sapiens (Human), UniProt Q04759). The assay is described as follows: KinaseProfiler kinase panel. The class given is biochemical.
The target of the next assay is GRK6(h) (Homo sapiens (Human), UniProt P43250). Kind of assay: KinaseProfiler kinase panel. The class given is biochemical.
For another assay, the target named is Itk(h) (Homo sapiens (Human), UniProt Q08881). Kind of assay: KinaseProfiler kinase panel. It counts as biochemical.
In a further assay the target is cKit(D816H)(h) (Homo sapiens (Human), UniProt P10721, D816H). Kind of assay: KinaseProfiler kinase panel. The class given is biochemical.
In another assay the target is Abl (H396P) (h) (Homo sapiens (Human), UniProt P00519, H396P). The assay is described as follows: KinaseProfiler kinase panel. The class given is biochemical.
A further assay has as its target ASK1(h) (Homo sapiens (Human), UniProt Q99683). The assay is described as follows: KinaseProfiler kinase panel. The class given is biochemical.
Another assay has as its target EphB3(h) (Homo sapiens (Human), UniProt P54753). The assay is described as follows: KinaseProfiler kinase panel. The class given is biochemical.
Another assay concerns the target BTK(R28H)(h) (Homo sapiens (Human), UniProt Q06187, R28H). The assay is described as follows: KinaseProfiler kinase panel. It counts as biochemical.
A further assay has as its target Plk1(h) (Homo sapiens (Human), UniProt P53350). The assay is described as follows: KinaseProfiler kinase panel. It counts as biochemical.
In another assay the target is Lyn(m) (Mus musculus (Mouse), UniProt P25911). Kind of assay: KinaseProfiler kinase panel. The class given is biochemical.
The target of the next assay is PAR-1Bα(h) (Homo sapiens (Human), UniProt Q7KZI7). Kind of assay: KinaseProfiler kinase panel. The class given is biochemical.
The target in the next assay is Met(Y1248C)(h) (Homo sapiens (Human), UniProt P08581, Y1248C). The assay is described as follows: KinaseProfiler kinase panel. It counts as biochemical.
The next assay deals with EphA4(h) (Homo sapiens (Human), UniProt P54764). Kind of assay: KinaseProfiler kinase panel. The class given is biochemical.
The target in another assay is PAK6(h) (Homo sapiens (Human), UniProt Q9NQU5). The assay is described as follows: KinaseProfiler kinase panel. It counts as biochemical.
The target in the next assay is Ret(h) (Homo sapiens (Human), UniProt P07949). Kind of assay: KinaseProfiler kinase panel. It counts as biochemical.
The next assay addresses GRK7(h) (Homo sapiens (Human), UniProt Q8WTQ7). The assay is described as follows: KinaseProfiler kinase panel. The class given is biochemical.
Another assay has as its target IRAK1(h) (Homo sapiens (Human), UniProt P51617). The assay is described as follows: KinaseProfiler kinase panel. It counts as biochemical.
The next assay has as its target MRCKα(h) (Homo sapiens (Human), UniProt Q5VT25). The assay is described as follows: KinaseProfiler kinase panel. It counts as biochemical.
The next assay deals with p70S6K(h) (Homo sapiens (Human), UniProt P23443). Kind of assay: KinaseProfiler kinase panel. The class given is biochemical.
In a further assay the target is Flt3(D835Y)(h) (Homo sapiens (Human), UniProt P36888, D835Y). Kind of assay: KinaseProfiler kinase panel. It counts as biochemical.
A further assay has as its target CDK2/cyclin A (Homo sapiens (Human), UniProt P24941). The note with it: tested at 1 μM; cited from earlier work.

One may read the remaining activity as the signal under treatment as a percentage of the control signal.

Chain of CDK5/p25(h) (Q00535 whole entry): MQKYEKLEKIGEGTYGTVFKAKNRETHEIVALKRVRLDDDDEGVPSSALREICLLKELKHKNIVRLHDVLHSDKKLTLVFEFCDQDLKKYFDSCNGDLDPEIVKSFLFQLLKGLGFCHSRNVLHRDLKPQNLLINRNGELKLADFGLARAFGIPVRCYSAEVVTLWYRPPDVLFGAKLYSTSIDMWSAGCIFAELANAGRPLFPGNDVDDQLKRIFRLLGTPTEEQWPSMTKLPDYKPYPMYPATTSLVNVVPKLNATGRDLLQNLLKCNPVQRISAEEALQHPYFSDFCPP
Chain of CDK5/p25(h) (Q15078 99-307 partner): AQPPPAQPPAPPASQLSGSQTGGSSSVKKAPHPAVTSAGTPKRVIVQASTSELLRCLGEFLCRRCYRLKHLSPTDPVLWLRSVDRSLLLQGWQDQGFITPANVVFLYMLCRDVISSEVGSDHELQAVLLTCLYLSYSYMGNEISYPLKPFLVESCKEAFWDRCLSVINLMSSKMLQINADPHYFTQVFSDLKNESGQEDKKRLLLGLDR
Chain of Haspin(h) (Q8TF76 whole entry): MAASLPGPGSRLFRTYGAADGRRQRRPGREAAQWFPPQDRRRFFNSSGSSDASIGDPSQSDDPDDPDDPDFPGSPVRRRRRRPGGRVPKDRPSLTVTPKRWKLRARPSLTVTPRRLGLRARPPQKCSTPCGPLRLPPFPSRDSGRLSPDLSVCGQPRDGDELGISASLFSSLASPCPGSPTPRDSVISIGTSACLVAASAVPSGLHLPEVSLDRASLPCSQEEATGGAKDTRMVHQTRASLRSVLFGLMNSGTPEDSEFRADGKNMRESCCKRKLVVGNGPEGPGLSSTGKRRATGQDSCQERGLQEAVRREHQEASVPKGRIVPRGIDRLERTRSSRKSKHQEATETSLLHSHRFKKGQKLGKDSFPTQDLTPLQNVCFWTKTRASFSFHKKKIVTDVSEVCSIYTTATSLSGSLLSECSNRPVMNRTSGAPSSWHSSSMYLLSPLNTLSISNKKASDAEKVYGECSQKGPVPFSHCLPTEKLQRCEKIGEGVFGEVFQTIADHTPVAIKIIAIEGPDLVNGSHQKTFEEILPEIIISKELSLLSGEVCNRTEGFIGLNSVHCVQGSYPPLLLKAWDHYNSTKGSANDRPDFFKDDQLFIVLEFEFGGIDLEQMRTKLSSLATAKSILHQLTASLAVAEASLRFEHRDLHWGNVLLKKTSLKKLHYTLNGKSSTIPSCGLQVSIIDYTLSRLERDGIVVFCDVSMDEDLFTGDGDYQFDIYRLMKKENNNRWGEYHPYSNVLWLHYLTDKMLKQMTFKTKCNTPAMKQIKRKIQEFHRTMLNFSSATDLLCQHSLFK
Chain of Txk(h) (P42681 whole entry): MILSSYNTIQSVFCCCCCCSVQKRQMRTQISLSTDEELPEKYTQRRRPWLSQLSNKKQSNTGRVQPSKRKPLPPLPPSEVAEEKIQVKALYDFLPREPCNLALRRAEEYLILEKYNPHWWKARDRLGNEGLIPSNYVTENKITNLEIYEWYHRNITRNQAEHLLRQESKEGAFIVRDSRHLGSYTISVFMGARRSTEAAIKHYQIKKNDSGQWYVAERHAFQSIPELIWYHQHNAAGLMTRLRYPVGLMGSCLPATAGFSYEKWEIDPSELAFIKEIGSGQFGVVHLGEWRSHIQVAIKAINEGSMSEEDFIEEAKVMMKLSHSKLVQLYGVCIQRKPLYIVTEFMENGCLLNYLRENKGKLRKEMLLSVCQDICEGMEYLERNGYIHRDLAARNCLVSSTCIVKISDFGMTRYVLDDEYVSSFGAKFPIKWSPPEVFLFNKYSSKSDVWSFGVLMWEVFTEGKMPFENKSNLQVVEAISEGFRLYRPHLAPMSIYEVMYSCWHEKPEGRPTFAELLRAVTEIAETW
Chain of Met(M1268T)(h) (P08581 other isoform, or with tags, fused parts or gaps M1268T): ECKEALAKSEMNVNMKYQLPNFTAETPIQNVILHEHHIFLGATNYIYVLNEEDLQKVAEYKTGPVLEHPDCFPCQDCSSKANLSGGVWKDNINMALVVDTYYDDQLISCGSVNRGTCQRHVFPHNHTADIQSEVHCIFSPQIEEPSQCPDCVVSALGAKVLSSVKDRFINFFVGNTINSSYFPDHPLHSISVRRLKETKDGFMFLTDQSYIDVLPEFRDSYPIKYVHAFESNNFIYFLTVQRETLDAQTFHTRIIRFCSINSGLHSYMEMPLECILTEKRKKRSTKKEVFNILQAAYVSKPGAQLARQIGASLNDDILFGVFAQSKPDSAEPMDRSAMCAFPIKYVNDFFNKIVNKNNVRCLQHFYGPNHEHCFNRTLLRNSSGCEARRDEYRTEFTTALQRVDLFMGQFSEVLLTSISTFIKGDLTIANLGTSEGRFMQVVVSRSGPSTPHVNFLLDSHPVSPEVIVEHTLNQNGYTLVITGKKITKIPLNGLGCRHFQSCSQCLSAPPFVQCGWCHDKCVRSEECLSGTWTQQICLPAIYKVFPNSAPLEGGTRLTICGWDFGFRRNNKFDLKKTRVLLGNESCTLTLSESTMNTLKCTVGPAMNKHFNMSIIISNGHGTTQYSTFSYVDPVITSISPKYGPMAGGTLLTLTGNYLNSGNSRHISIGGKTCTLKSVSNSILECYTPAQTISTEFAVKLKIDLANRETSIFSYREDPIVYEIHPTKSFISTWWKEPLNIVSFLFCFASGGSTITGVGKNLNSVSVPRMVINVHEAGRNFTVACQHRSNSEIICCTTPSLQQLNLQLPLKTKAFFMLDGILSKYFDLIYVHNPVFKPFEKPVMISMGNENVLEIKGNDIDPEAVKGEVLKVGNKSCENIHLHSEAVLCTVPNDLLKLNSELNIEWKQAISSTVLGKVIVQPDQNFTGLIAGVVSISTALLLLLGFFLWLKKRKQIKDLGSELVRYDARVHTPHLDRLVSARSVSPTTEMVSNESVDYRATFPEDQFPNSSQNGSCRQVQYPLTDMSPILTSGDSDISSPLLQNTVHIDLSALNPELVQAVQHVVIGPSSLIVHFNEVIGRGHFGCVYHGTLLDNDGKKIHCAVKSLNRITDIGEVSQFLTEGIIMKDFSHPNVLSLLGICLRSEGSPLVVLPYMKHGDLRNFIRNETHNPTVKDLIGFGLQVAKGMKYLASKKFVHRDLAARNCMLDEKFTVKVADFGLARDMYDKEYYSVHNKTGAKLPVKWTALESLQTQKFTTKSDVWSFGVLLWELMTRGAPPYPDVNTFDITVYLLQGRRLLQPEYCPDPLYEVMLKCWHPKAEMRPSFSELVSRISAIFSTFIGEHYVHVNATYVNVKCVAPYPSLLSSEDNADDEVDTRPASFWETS
Chain of Ret(h) (P07949 29-1114): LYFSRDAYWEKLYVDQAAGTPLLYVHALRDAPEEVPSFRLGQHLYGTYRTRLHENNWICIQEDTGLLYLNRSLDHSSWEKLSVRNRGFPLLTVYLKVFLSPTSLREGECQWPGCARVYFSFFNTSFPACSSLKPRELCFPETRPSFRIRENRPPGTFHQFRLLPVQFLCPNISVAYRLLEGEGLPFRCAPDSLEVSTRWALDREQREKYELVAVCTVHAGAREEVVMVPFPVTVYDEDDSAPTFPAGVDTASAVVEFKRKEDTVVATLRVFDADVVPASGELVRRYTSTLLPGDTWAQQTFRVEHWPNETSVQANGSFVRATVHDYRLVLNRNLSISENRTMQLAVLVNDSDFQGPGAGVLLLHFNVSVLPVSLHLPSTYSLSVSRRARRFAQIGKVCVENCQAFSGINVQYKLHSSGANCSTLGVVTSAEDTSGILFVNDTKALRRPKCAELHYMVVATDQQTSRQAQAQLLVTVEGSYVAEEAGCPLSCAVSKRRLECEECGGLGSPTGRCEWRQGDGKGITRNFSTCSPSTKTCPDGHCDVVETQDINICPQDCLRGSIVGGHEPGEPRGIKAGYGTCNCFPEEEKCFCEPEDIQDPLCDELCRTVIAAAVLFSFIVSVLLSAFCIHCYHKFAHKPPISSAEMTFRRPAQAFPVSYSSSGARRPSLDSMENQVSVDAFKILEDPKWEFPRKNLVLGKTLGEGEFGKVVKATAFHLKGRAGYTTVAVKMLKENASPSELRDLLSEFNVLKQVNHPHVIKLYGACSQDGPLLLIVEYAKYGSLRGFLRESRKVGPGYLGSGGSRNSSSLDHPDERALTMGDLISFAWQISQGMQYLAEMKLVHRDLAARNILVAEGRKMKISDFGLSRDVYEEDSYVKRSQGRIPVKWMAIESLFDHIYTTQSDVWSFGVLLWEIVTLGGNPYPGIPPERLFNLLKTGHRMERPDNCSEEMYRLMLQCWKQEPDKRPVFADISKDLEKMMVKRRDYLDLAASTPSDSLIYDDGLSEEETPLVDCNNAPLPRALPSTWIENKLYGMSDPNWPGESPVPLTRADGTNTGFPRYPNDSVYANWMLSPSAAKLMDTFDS
Chain of p70S6K(h) (P23443 whole entry): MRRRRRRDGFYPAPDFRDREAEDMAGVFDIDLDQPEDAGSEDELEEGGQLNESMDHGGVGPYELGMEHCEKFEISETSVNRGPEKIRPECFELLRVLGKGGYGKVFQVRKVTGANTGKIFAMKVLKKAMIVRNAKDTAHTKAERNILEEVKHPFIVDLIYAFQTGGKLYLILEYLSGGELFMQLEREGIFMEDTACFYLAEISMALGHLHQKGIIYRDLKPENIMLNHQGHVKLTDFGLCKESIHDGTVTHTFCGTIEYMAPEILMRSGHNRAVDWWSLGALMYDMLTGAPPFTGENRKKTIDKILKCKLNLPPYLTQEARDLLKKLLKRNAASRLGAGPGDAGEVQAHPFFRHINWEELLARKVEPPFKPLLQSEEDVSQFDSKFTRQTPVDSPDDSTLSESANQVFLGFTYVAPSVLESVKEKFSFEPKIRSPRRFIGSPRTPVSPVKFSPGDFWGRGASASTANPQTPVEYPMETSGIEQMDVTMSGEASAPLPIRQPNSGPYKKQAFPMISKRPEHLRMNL

Regarding `CCn1c(N2CCNCC2)nc2c(Br)c(Br)c(Br)c(Br)c21` [Compound 416, 4,5,6,7-tetrabromo-1-ethyl-2-(piperazin-1-yl)-1H-benzo[d]imidazole], the remaining activity at 1 µM on cSRC(h) is 79%; on CaMKIV(h), 85%; on ARK5(h), 93%; on Flt3(h) it was 0%; on c-RAF(h), 85%; on IKKα(h) it was 56%. The remaining activity at 1 µM was 1% on CDK5/p25(h); 73% on MEK1(h); 90% on Snk(h); 70% at Met(M1268T)(h); 99% at Txk(h); 105% on DDR2(h). The remaining activity at 1 µM at LKB1(h) stood at 86%; on Haspin(h), 2%; on HIPK2(h), 1%; on AMPKα2(h), 67%; at eEF-2K(h), 107%; on IKKβ(h) it was 78%. The remaining activity at 1 µM is 26% on PKCθ(h); 91% at GRK6(h); 105% on Itk(h); 6% at cKit(D816H)(h); 107% on Abl (H396P) (h); 100% on ASK1(h). Also, the remaining activity at 1 µM came out at 121% on EphB3(h); 102% on BTK(R28H)(h); 117% on Plk1(h); 73% on Lyn(m); 85% at PAR-1Bα(h); 73% at Met(Y1248C)(h). Also, the remaining activity at 1 µM stood at 99% on EphA4(h); 85% at PAK6(h); 27% on Ret(h); 93% on GRK7(h); 33% at IRAK1(h); 96% on MRCKα(h). Moreover, the remaining activity at 1 µM on p70S6K(h) worked out at 56%; on Flt3(D835Y)(h), 1%.
In the case of `CN(C)c1nc2c(Br)c(Br)c(Br)c(Br)c2[nH]1` [DMAT, 2-dimethylamino-4,5,6,7-tetrabromo-1H-benzimidazole, reference compound], the “inhibition of CDK2/cyclin A activity” value on CDK2/cyclin A is on record as “do not inhibit”.
